This experiment addresses T1, Human FAAH (Homo sapiens, UniProt O00519).
T1 construct: made in house
T1 sequence (O00519 32-579 limits assumed): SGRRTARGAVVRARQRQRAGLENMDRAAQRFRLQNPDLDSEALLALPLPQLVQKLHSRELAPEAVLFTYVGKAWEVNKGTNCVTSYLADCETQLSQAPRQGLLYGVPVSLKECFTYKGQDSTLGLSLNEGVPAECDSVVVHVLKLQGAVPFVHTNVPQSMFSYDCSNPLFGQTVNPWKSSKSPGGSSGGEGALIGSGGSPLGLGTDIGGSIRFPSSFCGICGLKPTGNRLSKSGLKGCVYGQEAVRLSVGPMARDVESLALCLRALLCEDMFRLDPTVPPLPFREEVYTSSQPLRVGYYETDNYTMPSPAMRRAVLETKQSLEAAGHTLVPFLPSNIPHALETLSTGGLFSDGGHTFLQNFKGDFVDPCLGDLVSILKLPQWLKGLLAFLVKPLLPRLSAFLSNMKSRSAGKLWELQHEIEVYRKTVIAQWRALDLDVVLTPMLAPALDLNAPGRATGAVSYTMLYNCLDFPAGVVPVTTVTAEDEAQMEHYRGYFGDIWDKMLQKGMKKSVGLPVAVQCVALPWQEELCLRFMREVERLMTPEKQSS
Briefly: FAAH assay (glutamate dehydrogenase-coupled, oleamide substrate, absorbance at 340 nm). The experiment is classed as biochemical. To be noted: for hFAAH KInact/K: irreversible inhibition potency; for kinact/KI: further compounds, read-out: hFAAH_Kinact/Ki—StL. Put shortly:
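Human FAAH (1-4 nM) with 50 μM oleamide, coupled to glutamate dehydrogenase/NADH, pH 7.4, 7.5% DMSO and EtOH, 30° C; A340 read every 30 s for 90 min. Irreversible inhibition fitted for kobs per concentration, then Ki and kinact from kobs vs. [I].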

For `Cc1ncsc1CCOc1cccc(C=C2CCN(C(=O)Nc3cccnn3)CC2)c1` [Example 105, 4-{3-[2-(4-methyl-1,3-thiazol-5-yl)ethoxy]benzylidene}-N-pyridazin-3-ylpiperidine-1-carboxamide], the “hFAAH KInact/K” value worked out at 6410 M⁻¹ s⁻¹.
Still for that read-out and setting: for `CCOc1cccc(C=C2CCN(C(=O)Nc3cccnc3)CC2)c1` [Example 1, 4-(3-ethoxybenzylidene)-N-pyridin-3-ylpiperidine-1-carboxamide] the value was 2020 M⁻¹ s⁻¹; for `C=CC(C)Oc1cccc(C=C2CCN(C(=O)Nc3cccnc3)CC2)c1` (stereo not shown) [Example 25, 4-{3-[(1-methylprop-2-en-1-yl)oxy]benzylidene}-N-pyridin-3-ylpiperidine-1-carboxamide], 939 M⁻¹ s⁻¹.
On the same count and under the same terms, for `O=C(Nc1cccnn1)N1CCC(=Cc2cccc(OC3CCC3)c2)CC1` [Example 9, 4-[3-(cyclobutyloxy)benzylidene]-N-pyridazin-3-ylpiperidine-1-carboxamide] the value was 531 M⁻¹ s⁻¹; for `Cc1cc(COc2cccc(C=C3CCN(C(=O)Nc4cccnn4)CC3)c2)c(C(F)(F)F)o1` [Example 63, 4-(3-{[5-methyl-2-(trifluoromethyl)-3-furyl]methoxy}benzylidene)-N-pyridazin-3-ylpiperidine-1-carboxamide], 131 M⁻¹ s⁻¹; for `O=C(Nc1cccnn1)N1CCC(=Cc2cccc(OC3CCOC3)c2)CC1` (stereo not shown) [Example 17, N-pyridazin-3-yl-4-[3-(tetrahydrofuran-3-yloxy)benzylidene]piperidine-1-carboxamide], 371 M⁻¹ s⁻¹.
Same read-out and setting: for `CCCC(C)Oc1cccc(C=C2CCN(C(=O)Nc3cccnc3)CC2)c1` (stereo not shown) [Example 35, 4-[3-(1-methylbutoxy)benzylidene]-N-pyridin-3-ylpiperidine-1-carboxamide] the value was 2680 M⁻¹ s⁻¹; for `O=C(Nc1cccnc1)N1CCC(=Cc2cccc(OC3CCCCC3)c2)CC1` [Example 7, 4-[3-(cyclohexyloxy)benzylidene]-N-pyridin-3-ylpiperidine-1-carboxamide], 1220 M⁻¹ s⁻¹.
On to `O=C(Nc1cccnn1)N1CCC(=Cc2cccc(OCC3CCOC3)c2)CC1` (stereo not shown) [Example 53, N-pyridazin-3-yl-4-[3-(tetrahydrofuran-3-ylmethoxy)benzylidene]piperidine-1-carboxamide], for which the “hFAAH KInact/K” value worked out at 1750 M⁻¹ s⁻¹.
Still for that read-out and setting: for “N-pyridazin-3-yl-4-[3-(2-pyridin-4-ylethoxy)benzylidene]piperidine-1-carboxamide [Example 79]” the value was 3834 M⁻¹ s⁻¹; for `CCC(COC)Oc1cccc(C=C2CCN(C(=O)Nc3cccnn3)CC2)c1` (stereo not shown) [Example 98, 4-{3-[1-(methoxymethyl)propoxy]benzylidene}-N-pyridazin-3-ylpiperidine-1-carboxamide], 276 M⁻¹ s⁻¹; for `CC1CCC(COc2cccc(C=C3CCN(C(=O)Nc4cccnn4)CC3)c2)CC1` (stereo not shown) [Example 101, 4-{3-[(4-methylcyclohexyl)methoxy]benzylidene}-N-pyridazin-3-ylpiperidine-1-carboxamide], 3281 M⁻¹ s⁻¹.
Same read-out and setting: for `CCC(C)Oc1cccc(C=C2CCN(C(=O)Nc3cccnc3)CC2)c1` (stereo not shown) [Example 23, 4-(3-sec-butoxybenzylidene)-N-pyridin-3-ylpiperidine-1-carboxamide] the value was 555 M⁻¹ s⁻¹; for `O=C(Nc1cccnn1)N1CCC(=Cc2cccc(OCCc3ccccc3)c2)CC1` [Example 75, 4-[3-(2-phenylethoxy)benzylidene]-N-pyridazin-3-ylpiperidine-1-carboxamide], 36139 M⁻¹ s⁻¹.
Consider `CCCC(C)Oc1cccc(C=C2CCN(C(=O)Nc3cccnn3)CC2)c1` (stereo not shown) [Example 30, 4-[3-(1-methylbutoxy)benzylidene]-N-pyridazin-3-ylpiperdine-1-carboxamide], for which the “hFAAH KInact/K” value came out at 3440 M⁻¹ s⁻¹.
The same measure, in the same setting: for `O=C(Nc1cccnc1)N1CCC(=Cc2cccc(OC3CCCOC3)c2)CC1` (stereo not shown) [Example 12, N-pyridin-3-yl-4-[3-(tetrahydro-2H-pyran-3-yloxy)benzylidene]piperidine-1-carboxamide] the value was 907 M⁻¹ s⁻¹.
As for `O=C(Nc1cccnc1)N1CCC(=Cc2cccc(OCC3CCCCO3)c2)CC1` (stereo not shown) [N-pyridin-3-yl-4-[3-(tetrahydro-2H-pyran-2-ylmethoxy)benzylidene]piperidine-1-carboxamide], the kinact/KI was 3130 M⁻¹ s⁻¹.
As to `CN1CCCCC1COc1cccc(C=C2CCN(C(=O)Nc3cccnn3)CC2)c1` (stereo not shown) [Example 55, 4-{3-[(1-methylpiperidin-2-yl)methoxy]benzylidene}-N-pyridazin-3-ylpiperidine-1-carboxamide], the “hFAAH KInact/K” value is 35 M⁻¹ s⁻¹.
Turning to `Cc1ccc(NC(=O)N2CCC(=Cc3cccc(OCC4CCCCO4)c3)CC2)cn1` (stereo not shown) [N-(6-methylpyridin-3-yl)-4-[3-(tetrahydro-2H-pyran-2-ylmethoxy)benzylidene]piperidine-1-carboxamide], the kinact/KI was 536 M⁻¹ s⁻¹.
With `O=C(Nc1cccnn1)N1CCC(=Cc2cccc(OC3CCCCC3)c2)CC1` [Example 10, 4-[3-(cyclohexyloxy)benzylidene]-N-pyridazin-3-ylpiperidine-1-carboxamide], the “hFAAH KInact/K” value amounted to 3300 M⁻¹ s⁻¹.
On the same count and under the same terms, with `CCC(CC)Oc1cccc(C=C2CCN(C(=O)Nc3cccnc3)CC2)c1` [Example 15, 4-[3-(1-ethylpropoxy)benzylidene]-N-pyridin-3-ylpiperidine-1-carboxamide] the figure was 216 M⁻¹ s⁻¹; with `O=C(Nc1cccnc1)N1CCC(=Cc2cccc(OC3CCC3)c2)CC1` [Example 8, 4-[3-(cyclobutyloxy)benzylidene]-N-pyridin-3-ylpiperidine-1-carboxamide], 324 M⁻¹ s⁻¹.

Values taken from US20110144159A1, “ETHER BENZYLIDENE PIPERIDINE ARYL CARBOXAMIDE COMPOUNDS USEFUL AS FAAH INHIBITORS” (Pfizer Inc, priority 2008, published 2011).
